Data as given in patent US20190112357A1, “PREVENTION OF PROTEIN DISULFIDE BOND REDUCTION” (MedImmune, LLC, priority 2016, published 2019).

Experiments:
[1] = system: TrxR1 purified from a day 14 culture of cell line B; assay: DTNB reductase activity of 2'5'-ADP column fractions from cell line B, TrxR1; format: biochemical, Chinese Hamster; conditions: 0.5 μM ATG, fractions B1-C2, depending on the fraction
Protocol: Reductases were purified from cell samples to verify the specificity of reductase inhibitors. A day 14 culture of mAb B (IgG antibody produced by CHO cell line B CHO-K1SV) was pelleted by centrifugation, washed once with PBS and re-suspended in 50 mM tris buffer, pH 7.5. The solution was homogenized and filtered at 0.2 μm prior to loading onto a column of 2′5′-ADP Sepharose 4B resin. The reductases were eluted using a linearly increasing gradient of 0 to 0.3 mM NADP^+ in the same tris buffer (Yadav, et al., Parasitol. Int., 62:193-198, 2013). The reductase activity of the collected fractions was determined using the assay described in Example 3. Additionally, western blot analysis was used to detect TrxR1 and GR in the collected fractions.
The reductase-specific inhibitors were evaluated above using purified recombinant mammalian enzymes from rat and human. […] The added activity from the two systems was approximately equal to the total activity detected in the absence of an inhibitor for each fraction. […] That is, if the reductase inhibitors were non-specifically inhibiting both enzymatic systems, the added reductase activity would have been […] than the reductase activity detected without any added inhibitor. […] The fractions with reductase activity were pooled and further evaluated at the inhibitor concentrations assayed in the antibody reduction assay.

[2] = system: GR isolated from CHO cell culture; assay: mAb B reduction by pooled CHO fractions with NADPH and GSSG; format: biochemical, Chinese Hamster; conditions: 3 μM Cu^2+ or 100 μM ATG, overnight room temperature
Protocol: Purified mAb B was spiked into several solutions containing different combinations of the pooled fractions (PF), recombinant Trx1, GSSG, NADPH, ATG, and Cu^2+. The solutions were incubated at room temperature overnight and the amount of intact antibody remaining was determined by capillary electrophoresis according to the protocol described above. In the first set of samples, purified mAb B was spiked into the pooled fractions with, and without, NADPH.
In the second set of samples, purified mAb B was spiked into solutions containing the pooled enzymes, NADPH, GSSG, and either no inhibitor, 3 μM Cu^2+, or 100 μM ATG. […] This solution contained GR, GSSG, and NADPH, which are needed for the glutathione system.

GR/GSSG = biological target: T1, GR/GSSG (Homo sapiens, UniProt P00390); assay: DTNB reductase activity assay, recombinant GR/GSSG; format: biochemical; conditions: ATG concentrations lower than 5 μM
T1 construct: purchased Abcam
T1 sequence (P00390 44-522): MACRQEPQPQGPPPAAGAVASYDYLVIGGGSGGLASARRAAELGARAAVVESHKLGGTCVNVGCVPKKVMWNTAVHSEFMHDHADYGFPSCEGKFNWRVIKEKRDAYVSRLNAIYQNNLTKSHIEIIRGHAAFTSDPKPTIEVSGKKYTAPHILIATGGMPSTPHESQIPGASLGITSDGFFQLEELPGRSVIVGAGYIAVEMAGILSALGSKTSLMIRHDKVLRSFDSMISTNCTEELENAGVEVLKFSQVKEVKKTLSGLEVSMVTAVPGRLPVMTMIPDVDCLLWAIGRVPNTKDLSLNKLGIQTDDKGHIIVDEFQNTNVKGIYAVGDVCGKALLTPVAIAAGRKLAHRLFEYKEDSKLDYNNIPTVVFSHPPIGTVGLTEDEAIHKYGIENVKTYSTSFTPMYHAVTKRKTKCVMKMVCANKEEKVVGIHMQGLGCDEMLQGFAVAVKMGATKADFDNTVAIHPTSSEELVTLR
Protocol: (§1) Briefly, culture samples were thawed on ice. […] The samples were then allowed to incubate 5 minutes.
(§2) Activity of the reductases was calculated as follows. […] The activity was then calculated by the following equation: […]

thioredoxin system = assay: Reductase activity assay, day 14 culture samples, thioredoxin system; format: biochemical, Chinese Hamster; conditions: day 14, 0.5 μM ATG
Protocol: The total reductase activity was determined in the absence of any inhibitor. […] Thus, the difference in activity between a sample with ATG, and a sample without any inhibitor, indicates the amount of reductase activity contributed the thioredoxin system. […] Thus, the difference in reductase activity between a sample with 2-AAPA, and a sample without any inhibitor, indicates the amount of reductase activity contributed by the glutathione system. Although ATG and 2-AAPA are provided as exemplary specific inhibitors, other specific inhibitors discussed above can be employed in this assay instead of ATG and 2-AAPA.
as §1, §2
The reductase activities of the thioredoxin and glutathione systems were evaluated in day 14 culture samples of the same CHO cell lines A, B, C, and D, using the previously evaluated specific inhibitors 2-AAPA and ATG at 100 μM and 0.5 μM respectively. Data in FIG. 6A were normalized to viable cell density. Cell lines A, B, and C were described in Example 6, above. Cell line D is the cell line CHO CAT-S, and is stably transfected to produce an IgG1 mAb (mAb D).

[3] = biological target: T2, recombinant mammalian GR/GSSG (Homo sapiens, UniProt P00390); assay: Reduction of purified mAb B by recombinant GR/GSSG, capillary electrophoresis; format: biochemical
T2 construct: purchased Abcam
T2 sequence (P00390 44-522): T1 sequence (P00390 44-522)
Protocol: Antibody reduction in cell culture supernatant samples was measured by detecting the presence of reduced species via capillary electrophoresis using standard procedures on a 2100 Bioanalyzer system (Agilent Technologies, Santa Clara, Calif.). Samples were diluted 1-6 fold depending on titer and analyzed under non-reducing conditions following 2100 Bioanalyzer standard protocols. Supernatant samples from 3 L bioreactors were stored frozen until all samples had been acquired and were ready for analysis. Samples were thawed on ice and analyzed immediately to evaluate the amount of reduced antibody in the reactor on each day of the run.
Using the same approach with recombinant mammalian enzymes, the glutathione system was evaluated by spiking mAb B into five solutions containing: 1) no enzyme, 2) 1 mM GSSG (oxidized glutathione), 3) 0.2 μM GR (glutathione reductase), 4) 0.2 μM GR with 1 mM GSSG, and 5) 0.02 μM GR with 1 mM GSSG. […] The results indicated a minimal mAb B reduction in the solutions containing GSSG alone. This is the result of an impurity in the GSSG. […] was reduced in the solutions containing both GR and GSSG.
To confirm that the activity from a particular reductase system can translate into reduced antibody, a second method was developed to determine the impact of each reductase system on antibody reduction. The principle of the reduction assay is similar to the reductase activity assay described above. The percent of protein reduction without an inhibitor was compared to the percent of protein reduction in the presence of specific inhibitors for GR or TrxR1. In this assay, purified mAb B was spiked into solutions containing recombinant mammalian TrxR1/Trx1 or recombinant mammalian GR/GSSG and stored in an oxygen-free environment overnight. The percent of reduced mAb B antibody was evaluated using capillary electrophoresis, as set forth above.

OC[C@H]1O[C@H]([S-])[C@H](O)[C@@H](O)[C@@H]1O.[Au+] [ATG, aurothioglucose]
share of reductase activity from TrxR1, determined with the inhibitor [1]: 60-75%
antibody reduction in pooled enzymes, NADPH, GSSG [2]: did not inhibit antibody reduction
reductase activity of solutions containing GR/GSSG (GR/GSSG): unaffected
share of total reductase activity from the thioredoxin system (thioredoxin system; cell line A): 35%
share of total reductase activity from the thioredoxin system (thioredoxin system; cell line B): 60%
share of total reductase activity from the thioredoxin system (thioredoxin system; cell line C): 87%
share of total reductase activity from the thioredoxin system (thioredoxin system; cell line D): 60%
antibody reduction in sample containing GR/GSSG ([3]; 0.1 mM ATG, purified mAb B, overnight, oxygen-free): complete reduction of the antibody
specificity in GR/GSSG samples at higher concentrations ([3]; 0.5 mM and 1 mM ATG, increasing intact antibody): no longer specific for the thioredoxin system
